Measurements reported in ChEMBL document CHEMBL3769322, “Synthesis and evaluation of anticancer and antiobesity activity of 1-ethoxy carbonyl-3,5-bis (3'-indolyl methylene)-4-pyperidone analogs” (Bioorg Med Chem Lett, 2016).
One block for each compound: values may come before it.

Experiments:
[1] = Cytotoxicity against human SKOV3 cells by MTT assay; type: functional, cell-based; details: SK-OV-3
[2] = Inhibition of porcine pancreatic lipase type 2 using p-nitrophenyl laurate as substrate after 2 hrs by UV spectrophotometric analysis; set-up: species or system Sus scrofa
[3] = tested on: HepG2; test: Cytotoxicity activity against human HepG2 cells by MTT assay; type: functional, cell-based
[4] = tested on: A549; test: Cytotoxicity against human A549 cells by MTT assay; type: functional, cell-based
[5] = tested on: HeLa; test: Cytotoxicity against human HeLa cells by MTT assay; type: functional, cell-based
[6] = tested on: MCF7; test: Cytotoxicity against human MCF7 cells by MTT assay; type: functional, cell-based

- IC50 [2]: Not Active
Structure (SMILES): CCOC(=O)N1C/C(=C\c2cn(Cc3ccccc3)c3ccccc23)C(=O)/C(=C/c2cn(Cc3ccccc3)c3ccccc23)C1
- IC50 [1]: > 100 µM
- IC50 [3]: > 100 µM
- IC50 [4]: > 100 µM
- IC50 [5]: > 100 µM
- IC50 [6]: > 100 µM

Structure (SMILES): COc1cc(/C=C/C(=O)CC(=O)/C=C/c2ccc(O)c(OC)c2)ccc1O [CURCUMIN]
- IC50 [1]: 49.9 µM
- IC50 [3]: 4.43 µM
- IC50 [4]: 23.5 µM
- IC50 [5]: 51.9 µM
- IC50 [6]: 46.2 µM

- IC50 ([2]; read-out: IC50): 56.4 µM
Structure (SMILES): CCOC(=O)N1C/C(=C\c2cn(Cc3ccccc3F)c3ccccc23)C(=O)/C(=C/c2cn(Cc3ccccc3F)c3ccccc23)C1
- IC50 [1]: 85.5 µM
- IC50 [3]: > 100 µM
- IC50 [4]: 29.1 µM
- IC50 [5]: > 100 µM
- IC50 [6]: > 100 µM

- IC50 ([2]; read-out: IC50): 14.9 µM
Structure (SMILES): CCOC(=O)N1C/C(=C\c2cn(Cc3ccc(Cl)cc3Cl)c3ccccc23)C(=O)/C(=C/c2cn(Cc3ccc(Cl)cc3Cl)c3ccccc23)C1
- IC50 [1]: > 100 µM
- IC50 [3]: > 100 µM
- IC50 [4]: > 100 µM
- IC50 [5]: > 100 µM
- IC50 [6]: > 100 µM

- IC50 ([2]; read-out: IC50): 30.9 µM
Structure (SMILES): CCOC(=O)N1C/C(=C\c2cn(Cc3ccc([N+](=O)[O-])cc3)c3ccccc23)C(=O)/C(=C/c2cn(Cc3ccc([N+](=O)[O-])cc3)c3ccccc23)C1
- IC50 [1]: > 100 µM
- IC50 [3]: > 100 µM
- IC50 [4]: 16 µM
- IC50 [5]: > 100 µM
- IC50 [6]: > 100 µM

- IC50 [2]: Not Active
Structure (SMILES): CCOC(=O)N1C/C(=C\c2cn(C)c3ccccc23)C(=O)/C(=C/c2cn(C)c3ccccc23)C1
- IC50 [1]: 55.1 µM
- IC50 [3]: > 100 µM
- IC50 [4]: 66.7 µM
- IC50 [5]: > 100 µM
- IC50 [6]: > 100 µM

- IC50 [2]: Not Active
Structure (SMILES): CCOC(=O)N1C/C(=C\c2cn(Cc3ccccc3C#N)c3ccccc23)C(=O)/C(=C/c2cn(Cc3ccccc3C#N)c3ccccc23)C1
- IC50 [1]: > 100 µM
- IC50 [3]: > 100 µM
- IC50 [4]: > 100 µM
- IC50 [5]: > 100 µM
- IC50 [6]: > 100 µM

- IC50 [2]: Not Active
Structure (SMILES): CCOC(=O)N1C/C(=C\c2cn(Cc3ccc(F)cc3)c3ccccc23)C(=O)/C(=C/c2cn(Cc3ccc(F)cc3)c3ccccc23)C1
- IC50 [1]: > 100 µM
- IC50 [3]: > 100 µM
- IC50 [4]: > 100 µM
- IC50 [5]: 48 µM
- IC50 [6]: > 100 µM

- IC50 [2]: Not Active
Structure (SMILES): CCOC(=O)N1C/C(=C\c2cn(Cc3cccc(Cl)c3)c3ccccc23)C(=O)/C(=C/c2cn(Cc3cccc(Cl)c3)c3ccccc23)C1
- IC50 [1]: 18 µM
- IC50 [3]: 7.33 µM
- IC50 [4]: 4.21 µM
- IC50 [5]: > 100 µM
- IC50 [6]: > 100 µM

Structure (SMILES): COc1cccc2c1C(=O)c1c(O)c3c(c(O)c1C2=O)C[C@@](O)(C(=O)CO)C[C@@H]3O[C@H]1C[C@H](N)[C@H](O)[C@H](C)O1 [DOXORUBICIN]
- IC50 [1]: 16.4 µM
- IC50 [3]: 10.2 µM
- IC50 [4]: 0.14 µM
- IC50 [5]: 9.03 µM

- IC50 [2]: Not Active
Structure (SMILES): CCOC(=O)N1C/C(=C\c2cn(Cc3ccc(-c4ccccc4C#N)cc3)c3ccccc23)C(=O)/C(=C/c2cn(Cc3ccc(-c4ccccc4C#N)cc3)c3ccccc23)C1
- IC50 [1]: > 100 µM
- IC50 [3]: > 100 µM
- IC50 [4]: > 100 µM
- IC50 [5]: > 100 µM
- IC50 [6]: > 100 µM

- IC50 [2]: Not Active
Structure (SMILES): CCOC(=O)N1C/C(=C\c2cn(Cc3ccccc3Cl)c3ccccc23)C(=O)/C(=C/c2cn(Cc3ccccc3Cl)c3ccccc23)C1
- IC50 [1]: 50.6 µM
- IC50 [3]: > 100 µM
- IC50 [4]: 2.75 µM
- IC50 [5]: > 100 µM
- IC50 [6]: > 100 µM

- IC50 ([2]; read-out: IC50): 62.2 µM
Structure (SMILES): CCCCCCCCCCC[C@@H](C[C@@H]1OC(=O)[C@H]1CCCCCC)OC(=O)[C@H](CC(C)C)NC=O [ORLISTAT]

- IC50 [2]: Not Active
Structure (SMILES): CCOC(=O)N1C/C(=C\c2cn(Cc3ccc(Br)cc3)c3ccccc23)C(=O)/C(=C/c2cn(Cc3ccc(Br)cc3)c3ccccc23)C1
- IC50 [1]: > 100 µM
- IC50 [3]: > 100 µM
- IC50 [4]: > 100 µM
- IC50 [5]: > 100 µM
- IC50 [6]: > 100 µM
